According to ChEMBL document CHEMBL1201862, “PubChem BioAssay data set” (2004):
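Compound exposure: 48 hours, 5 concentrations, 96-well plates. Abbreviation: GI50, concentration required for 50% inhibition of growth.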 Calls of active or inactive are those of the source. Rule as the data show it: active = GI50 up to about 1.1 µM and inactive = higher.

Assays:
Assay in all cases: inhibition of tumour cell growth, NCI panel, 48 h
[1] = system: ACHN
[2] = system: EKVX
[3] = system: CCRF-CEM
[4] = system: SNB-75
[5] = system: PC-3
[6] = system: SR
[7] = system: HL-60
[8] = system: HCC 2998
[9] = system: LOX IMVI
[10] = system: MDA-MB-231
[11] = system: RXF 393
[12] = system: HOP-62
[13] = system: MDA-N
[14] = system: A498
[15] = system: 786-0
[16] = system: SK-MEL-28
[17] = system: NCI-H460
[18] = system: SF-268
[19] = system: SNB-19
[20] = system: NCI-H522

Measured: GI50

O=C1C=CC(=O)c2c1ccc1c3ccccc3n(CCCCCCCCCCCCn3c4ccccc4c4ccc5c(c43)C(=O)C=CC5=O)c21
inactive: [1] > 100 µM | [2] > 100 µM | [3] 26.3 µM | [4] > 100 µM | [5] > 100 µM | [6] 50.5 µM | [7] 46.7 µM | [8] > 46.5 µM | [9] > 100 µM | [10] > 100 µM | [11] > 100 µM | [12] > 85.5 µM | [13] > 100 µM | [14] > 100 µM | [15] > 65.8 µM | [16] > 100 µM | [17] > 100 µM | [18] > 100 µM | [19] > 100 µM | [20] > 83.6 µM

CC(=O)c1c2c(c3ccccc3c1O)O[C@@H]1OCC[C@H]21
inactive: [1] > 100 µM | [2] > 100 µM | [3] > 100 µM | [4] 11.5 µM | [5] > 100 µM | [6] > 100 µM | [7] > 100 µM | [8] > 100 µM | [9] > 100 µM | [10] > 100 µM | [11] > 100 µM | [12] > 100 µM | [13] > 100 µM | [14] > 100 µM | [15] > 100 µM | [16] > 100 µM | [17] > 100 µM | [18] > 100 µM | [19] > 100 µM | [20] > 100 µM

COC1(OC)CCCc2c1no[n+]2[O-]
inactive: [1] > 100 µM | [2] > 100 µM | [3] > 100 µM | [4] 79.4 µM | [5] > 100 µM | [6] > 100 µM | [7] > 100 µM | [8] > 100 µM | [9] > 100 µM | [10] > 100 µM | [11] > 100 µM | [12] > 100 µM | [13] > 100 µM | [14] > 100 µM | [15] > 100 µM | [16] > 100 µM | [17] > 100 µM | [18] > 100 µM | [19] > 100 µM | [20] > 100 µM

CCOC(=O)c1cc(-c2ccc(OC)c(OC)c2)c[nH]1
inactive: [1] > 10 µM | [2] > 10 µM | [3] > 10 µM | [4] 5.08 µM | [5] > 10 µM | [6] > 10 µM | [7] > 10 µM | [8] > 10 µM | [9] > 10 µM | [10] > 10 µM | [11] > 10 µM | [12] > 10 µM | [13] > 10 µM | [14] > 10 µM | [15] > 10 µM | [16] > 10 µM | [17] > 10 µM | [18] > 10 µM | [19] > 10 µM | [20] > 10 µM
